Test results as given in patent US7846959B2, “Raf modulators and methods of use” (Exelixis, Inc., priority 2004, dated 2010).

How the values were obtained:
B-Raf = B-Raf (Homo sapiens, UniProt P15056); assay: Luciferase-coupled chemiluminescence kinase assay (ATP consumption), B-Raf; assay type: biochemical; conditions: read-out: bRaf (inhibition indicated as IC50)
Summary of the method: (§1)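 Pre-incub. kinase […] + cpd, 30 min RT (20 mM Tris pH 7.5, 10 mM MgCl2, 0.03% TX-100, 1 mM DTT). Start w/ ATP, 3 h ambient. Luciferase-luciferin mix added and luminescence read. Total ATP use 25-60%. IC50 derived.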

c-Raf = c-Raf (Homo sapiens, UniProt P04049); assay: Luciferase-coupled chemiluminescence kinase assay (ATP consumption), c-Raf; assay type: biochemical; conditions: read-out: cRaf-1 (inhibition indicated as IC50)
c-Raf, sequence (P04049 whole entry): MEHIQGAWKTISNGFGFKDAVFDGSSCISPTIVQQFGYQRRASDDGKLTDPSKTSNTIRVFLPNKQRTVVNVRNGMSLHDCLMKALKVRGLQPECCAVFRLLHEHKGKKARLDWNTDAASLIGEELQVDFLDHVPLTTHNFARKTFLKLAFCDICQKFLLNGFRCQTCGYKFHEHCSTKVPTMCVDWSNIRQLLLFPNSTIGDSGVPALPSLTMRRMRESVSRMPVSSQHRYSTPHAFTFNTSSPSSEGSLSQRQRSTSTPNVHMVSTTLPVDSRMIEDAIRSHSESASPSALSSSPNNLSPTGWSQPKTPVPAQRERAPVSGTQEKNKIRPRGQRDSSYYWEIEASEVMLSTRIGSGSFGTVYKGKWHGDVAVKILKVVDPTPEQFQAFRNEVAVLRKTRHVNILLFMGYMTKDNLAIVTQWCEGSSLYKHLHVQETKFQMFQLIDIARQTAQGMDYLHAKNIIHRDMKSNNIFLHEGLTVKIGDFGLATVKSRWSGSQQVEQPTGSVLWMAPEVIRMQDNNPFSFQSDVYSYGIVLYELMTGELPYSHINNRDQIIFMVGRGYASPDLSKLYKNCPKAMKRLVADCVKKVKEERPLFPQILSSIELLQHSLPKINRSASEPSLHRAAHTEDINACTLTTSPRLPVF
Summary of the method: as §1

B-Raf, sequence (P15056 whole entry): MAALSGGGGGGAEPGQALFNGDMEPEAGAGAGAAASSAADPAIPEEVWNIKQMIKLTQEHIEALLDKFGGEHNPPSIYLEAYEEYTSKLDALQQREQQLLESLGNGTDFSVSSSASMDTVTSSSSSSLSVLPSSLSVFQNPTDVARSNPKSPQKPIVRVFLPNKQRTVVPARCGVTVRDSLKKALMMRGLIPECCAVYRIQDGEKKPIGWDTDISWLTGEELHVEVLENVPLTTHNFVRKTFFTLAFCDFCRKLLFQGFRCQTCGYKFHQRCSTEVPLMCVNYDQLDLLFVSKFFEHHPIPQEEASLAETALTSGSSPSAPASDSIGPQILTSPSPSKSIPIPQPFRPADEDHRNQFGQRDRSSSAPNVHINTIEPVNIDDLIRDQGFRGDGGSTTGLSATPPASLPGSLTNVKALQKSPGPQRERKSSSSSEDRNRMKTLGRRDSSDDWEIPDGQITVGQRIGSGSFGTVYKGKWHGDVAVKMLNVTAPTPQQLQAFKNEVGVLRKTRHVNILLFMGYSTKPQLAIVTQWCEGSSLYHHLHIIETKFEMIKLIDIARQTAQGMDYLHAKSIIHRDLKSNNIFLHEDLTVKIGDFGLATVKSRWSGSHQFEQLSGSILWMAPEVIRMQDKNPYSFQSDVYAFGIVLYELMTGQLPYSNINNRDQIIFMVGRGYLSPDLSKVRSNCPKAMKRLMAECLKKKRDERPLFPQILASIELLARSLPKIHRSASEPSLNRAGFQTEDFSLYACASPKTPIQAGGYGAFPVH

Row | Structure (SMILES) | IC50 (B-Raf) [nM] | IC50 (c-Raf) [nM]
1 | O=C(Nc1nc2cc(C3(O)c4ccccc4C(=O)N3c3ccc(F)cc3)ccc2[nH]1)OCCN1CCCCC1 (stereo not shown) [Entry 283, 2-piperidin-1-ylethyl {5-[2-(4-fluorophenyl)-1-hydroxy-3-oxo-2,3-dihydro-1H-isoindol-1-yl]-1H-benzimidazol-2-yl}carbamate] | 100 to 1000 | < 100
2 | COC(=O)Nc1nc2cc(C3(O)c4ccccc4C(=O)N3c3cccc(Cl)c3C)ccc2[nH]1 (stereo not shown) [Entry 284, methyl {5-[2-(3-chloro-2-methylphenyl)-1-hydroxy-3-oxo-2,3-dihydro-1H-isoindol-1-yl]-1H-benzimidazol-2-yl}carbamate] | < 100 | < 100
3 | COC(=O)Nc1nc2cc(C3(O)c4ccccc4C(=O)N3c3cc(Cl)ccc3C)ccc2[nH]1 (stereo not shown) [Entry 285, methyl {5-[2-(5-chloro-2-methylphenyl)-1-hydroxy-3-oxo-2,3-dihydro-1H-isoindol-1-yl]-1H-benzimidazol-2-yl}carbamate] | < 100 | < 100
4 | CC(C)(CN1CCCCC1)C(=O)Nc1nc2ccc(C3(O)c4ccccc4C(=O)N3Cc3ccccc3)cc2[nH]1 (stereo not shown) [Entry 286, N-{6-[1-hydroxy-3-oxo-2-(phenylmethyl)-2,3-dihydro-1H-isoindol-1-yl]-1H-benzimidazol-2-yl}-2,2-dimethyl-3-piperidin-1-ylpropanamide] | 1000 to 10000 | 1000 to 10000
5 | O=C(CCCN1CCCCC1)Nc1nc2cc(C3(O)c4ccccc4C(=O)N3c3ccc(F)cc3)ccc2[nH]1 (stereo not shown) [Entry 287, N-{5-[2-(4-fluorophenyl)-1-hydroxy-3-oxo-2,3-dihydro-1H-isoindol-1-yl]-1H-benzimidazol-2-yl}-4-piperidin-1-ylbutanamide] | < 100 | < 100
6 | O=C(CCCN1CCCCC1)Nc1nc2cc(C3(O)c4ccccc4C(=O)N3c3cccc(Cl)c3F)ccc2[nH]1 (stereo not shown) [Entry 288, N-{5-[2-(3-chloro-2-fluorophenyl)-1-hydroxy-3-oxo-2,3-dihydro-1H-isoindol-1-yl]-1H-benzimidazol-2-yl}-4-piperidin-1-ylbutanamide] | < 100 | < 100
7 | COC(=O)Nc1nc2ccc(C(=O)c3ccccc3NC(=O)c3ccccc3)cc2[nH]1 [Entry 289, methyl [6-({2-[(phenylcarbonyl)amino]phenyl}carbonyl)-1H-benzimidazol-2-yl]carbamate] | 1000 to 10000 | 1000 to 10000
8 | COC(=O)Nc1nc2cc(C3(O)c4ccccc4C(=O)N3c3cccc(N4CCOCC4)c3)ccc2[nH]1 (stereo not shown) [Entry 290, methyl {5-[1-hydroxy-2-(3-morpholin-4-ylphenyl)-3-oxo-2,3-dihydro-1H-isoindol-1-yl]-1H-benzimidazol-2-yl}carbamate] | 1000 to 10000 | 1000 to 10000
9 | CN(C)CCOC(=O)Nc1nc2ccc(C3(O)c4ccccc4C(=O)N3c3cccc(Cl)c3F)cc2[nH]1 (stereo not shown) [Entry 291, 2-(dimethylamino)ethyl {6-[2-(3-chloro-2-fluorophenyl)-1-hydroxy-3-oxo-2,3-dihydro-1H-isoindol-1-yl]-1H-benzimidazol-2-yl}carbamate] | < 100 | < 100
10 | CCN(CC)CCOC(=O)Nc1nc2cc(C3(O)c4ccccc4C(=O)N3c3cccc(Cl)c3F)ccc2[nH]1 (stereo not shown) [Entry 292, 2-(diethylamino)ethyl {5-[2-(3-chloro-2-fluorophenyl)-1-hydroxy-3-oxo-2,3-dihydro-1H-isoindol-1-yl]-1H-benzimidazol-2-yl}carbamate] | < 100 | < 100
11 | O=C(Nc1nc2cc(C3(O)c4ccccc4C(=O)N3c3cccc(Cl)c3F)ccc2[nH]1)OCCN1CCCCC1 (stereo not shown) [Entry 293, 2-piperidin-1-ylethyl {5-[2-(3-chloro-2-fluorophenyl)-1-hydroxy-3-oxo-2,3-dihydro-1H-isoindol-1-yl]-1H-benzimidazol-2-yl}carbamate] | < 100 | < 100
